The values below are quoted from earlier work in US7326706B2, “Pyrazine modulators of cannabinoid receptors” (Bristol-Myers Squibb Company, priority 2003, dated 2008).

Structures are written as SMILES.

The conditions of data set [1]: chronic administration for two weeks.
The conditions of data set [2]: 16 week trial period.

In the case of `Cc1c(C(=O)NN2CCCCC2)nn(-c2ccc(Cl)cc2Cl)c1-c1ccc(I)cc1` [AM-251], in data set [1], the body weight result is given as “substantial body weight reduction”.

`Cc1c(C(=O)NN2CCCCC2)nn(-c2ccc(Cl)cc2Cl)c1-c1ccc(Cl)cc1` [SR-141716]: the “body weight in human subjects” value in data set [2] is “dose-dependently reduced body weight”.
